This note sets out measurements from ChEMBL document CHEMBL1201862, “PubChem BioAssay data set” (2004).

Common to all, as to experiment: inhibition of tumour cell growth, NCI panel, 48 h
The subject of assay [1] is MOLT-4.
For assay [2], the system named is SF-268.
The subject of assay [3] is NCI-H522.
Assay [4] has as its system HOP-62.
Assay [5] has as its system NCI-H226.
Assay [6] relates to COLO 205.
Assay [7] has as its system SR.
Assay [8] has as its system HL-60.
In assay [9] the test system is Hs-578T.
Assay [10] relates to OVCAR-8.
Assay [11] concerns RXF 393.
The subject of assay [12] is DU-145.
Assay [13] deals with SK-OV-3.
Assay [14] relates to SN12C.
Assay [15] concerns CAKI-1.
For assay [16], the system named is OVCAR-3.
Assay [17] has as its system Malme-3M.
In assay [18] the test system is UACC-62.
The subject of assay [19] is PC-3.
For assay [20], the system named is MDA-MB-231.

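Tested at 5 concentrations; 48 h exposure; 96-well plates; endpoints linearly interpolated, else capped at highest concentration. Abbreviation: GI50, concentration required for 50% inhibition of growth.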 Activity calls are given as the source filed them. Cut-off read from the data, not from the text of the source: active = GI50 up to about 1.1 µM and inactive = higher.

In the case of `Cc1nc2cccc([N+](=O)[O-])c2c(NCCCN(C)C)c1C`, the GI50 in [1] is 20.5 µM (inactive); in [2] it was > 77.3 µM (inactive); in assay [3], 15.2 µM (inactive); in assay [4] it was 28.9 µM (inactive); in assay [5], > 50.6 µM (inactive); in assay [6], 22.3 µM (inactive). The GI50 in assay [7] was > 34.5 µM (inactive); in [8], 11 µM (inactive); in assay [9], > 61.1 µM (inactive); in assay [10], 36.1 µM (inactive); in [11] it was 16.1 µM (inactive); in assay [12] it was 78.2 µM (inactive). For the same compound, the GI50 is > 100 µM (inactive) in assay [13]; 11.5 µM (inactive) in [14]; 32.9 µM (inactive) in [15]; 26.6 µM (inactive) in assay [16]; 22.2 µM (inactive) in [17]; > 100 µM (inactive) in assay [18]. Further, the GI50 in [19] was 17.8 µM (inactive).
`CCCCOC(=O)C(=O)C(CCC(=O)c1ccc(C)cc1)C(=O)C=C(C)C` (configuration not stated): the GI50 in assay [1], in assay [2], in [3], in assay [20], in assay [4] and in assay [5] was > 100 µM (inactive) in each case. In addition, the GI50 in assay [7], in assay [8], in [9], in assay [10], in [11] and in assay [13] was > 100 µM (inactive) throughout. Moreover, the GI50 in assay [14], in assay [15], in assay [16], in [17], in assay [18] and in assay [19] was > 100 µM (inactive) throughout.
As for `COc1ccc2c(c1)nc1n2C(c2c(F)cccc2Cl)SC1` (configuration not stated), the GI50 in assay [2] is 3.66 µM (inactive); in assay [20] it was 3.49 µM (inactive); in assay [5] it was 4.75 µM (inactive); in assay [6], 3.98 µM (inactive); in [8], 1.26 µM (inactive); in assay [9], 1.69 µM (inactive). The GI50 was 3.92 µM (inactive) in assay [10]; 1.49 µM (inactive) in assay [12]; > 22.6 µM (inactive) in [14]; 19.1 µM (inactive) in [15]; 1.02 µM (active) in [17]; 7.26 µM (inactive) in assay [18].
On to `CNC(=S)NN=C1NCCCN1`, for which the GI50 in assay [1], in [2], in assay [3], in assay [20], in assay [4] and in assay [5] was > 100 µM (inactive) in each case. For the same compound, the GI50 in assay [6], in assay [7], in assay [8], in assay [9], in assay [10] and in assay [11] was > 100 µM (inactive) each time. Besides, the GI50 in assay [13], in [15], in assay [16], in [17], in [18] and in assay [19] was > 100 µM (inactive) in each case.
